Where two headings read alike, the source gives them in different places.
Biological target: T1, AR protein in VCaP cells (Homo sapiens, UniProt P10275)
T1 construct: endogenous in cells; host or cells: VCaP cells
T1 sequence (P10275 1-920): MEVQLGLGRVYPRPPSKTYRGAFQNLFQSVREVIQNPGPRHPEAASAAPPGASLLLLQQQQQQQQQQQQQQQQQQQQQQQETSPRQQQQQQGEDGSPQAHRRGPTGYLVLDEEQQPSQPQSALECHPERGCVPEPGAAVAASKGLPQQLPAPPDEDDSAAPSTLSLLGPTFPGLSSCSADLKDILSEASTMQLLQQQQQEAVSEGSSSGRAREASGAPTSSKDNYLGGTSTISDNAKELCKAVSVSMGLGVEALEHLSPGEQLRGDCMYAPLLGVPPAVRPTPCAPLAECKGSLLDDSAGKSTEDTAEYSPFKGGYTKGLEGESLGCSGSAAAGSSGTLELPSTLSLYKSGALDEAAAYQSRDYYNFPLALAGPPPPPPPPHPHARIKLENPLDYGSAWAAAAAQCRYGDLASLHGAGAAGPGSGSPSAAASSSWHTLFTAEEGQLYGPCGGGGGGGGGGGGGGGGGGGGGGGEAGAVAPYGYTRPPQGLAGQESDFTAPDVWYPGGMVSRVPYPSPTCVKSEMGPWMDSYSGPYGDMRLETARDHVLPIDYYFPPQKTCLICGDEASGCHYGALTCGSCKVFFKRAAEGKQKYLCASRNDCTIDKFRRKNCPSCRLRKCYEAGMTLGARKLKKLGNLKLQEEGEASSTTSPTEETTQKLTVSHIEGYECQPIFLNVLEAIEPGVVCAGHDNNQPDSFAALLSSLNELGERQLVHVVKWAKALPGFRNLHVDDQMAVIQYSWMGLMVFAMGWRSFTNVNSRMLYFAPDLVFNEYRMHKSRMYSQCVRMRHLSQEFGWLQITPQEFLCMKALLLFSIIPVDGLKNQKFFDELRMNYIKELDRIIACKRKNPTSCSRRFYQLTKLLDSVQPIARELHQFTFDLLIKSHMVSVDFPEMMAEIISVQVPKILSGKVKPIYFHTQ
Assay: VCAP AR Degradation Assay (AR ELISA, 24 h)
Type: cell-based
Conditions: for Y (lowest measured AR level normalized to DMSO control): AR degradation efficiency; for DC50: concentration of compound when AR level = 50% of DMSO control
Summary of the method: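 VCaP cells in DMEM with 8% FBS exposed for 24 h at 37° C to a 10-point, 1:3 series (final top concentration […]; 0.1% DMSO control). Lysate AR measured by sandwich ELISA and normalized to DMSO as percent of control. DC50, EC50 and lowest AR level (Y) from four-parameter logistic fit.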

Structure (SMILES)	Y (lowest measured AR level normalized to DMSO control)	DC50 (read-out: DC50)	DC50
CCc1cc(N2C(=S)N(c3cnc(C#N)c(C(F)(F)F)c3)C(=O)C23CCC3)ccc1OCCC1CCN(CC(=O)Nc2cc(Cl)cc(NC3CCC(=O)NC3=O)c2)CC1 (stereo not shown) [Cmpd 27, N-(3-chloro-5-(2,6-dioxopiperidin-3-ylamino)phenyl)-2-(4-(2-(4-(7-(6-cyano-5-(trifluoromethyl)pyridin-3-yl)-8-oxo-6-thioxo-5,7-diazaspiro[3.4]octan-5-yl)-2-ethylphenoxy)ethyl)piperidin-1-yl)acetamide]	* (0<Y<=25%)	< 100 nM	
CCc1cc(N2C(=S)N(c3cnc(C#N)c(C(F)(F)F)c3)C(=O)C2(C)C)ccc1OCC[C@@H]1C[C@H]2CC[C@@H](C1)N2CC(=O)Nc1cc(Cl)cc(NC2CCC(=O)NC2=O)c1 (stereo partly drawn) [Cmpd 62, N-(3-chloro-5-(2,6-dioxopiperidin-3-ylamino)phenyl)-2-((1R,3s,5S)-3-(2-(4-(3-(6-cyano-5-(trifluoromethyl)pyridin-3-yl)-5,5-dimethyl-4-oxo-2-thioxoimidazolidin-1-yl)-2-ethylphenoxy)ethyl)-8-azabicyclo[3.2.1]octan-8-yl)acetamide]	* (0<Y<=25%)		< 100 nM
CCc1cc(N2C(=S)N(c3ccc(C#N)c(C(F)(F)F)c3)C(=O)C2(C)C)ccc1OCCC1CCN([C@@H](C)C(=O)Nc2cccc(NC3CCC(=O)NC3=O)c2)CC1 (stereo partly drawn) [Cmpd 41, (2S)-2-(4-(2-(4-(3-(4-cyano-3-(trifluoromethyl)phenyl)-5,5-dimethyl-4-oxo-2-thioxoimidazolidin-1-yl)-2-ethylphenoxy)ethyl)piperidin-1-yl)-N-(3-(2,6-dioxopiperidin-3-ylamino)phenyl)propanamide]	* (0<Y<=25%)	< 100 nM	
CCc1cc(N2C(=S)N(c3cnc(C#N)c(C(F)(F)F)c3)C(=O)C2(C)C)ccc1OCCC1CCN(CC(=O)Nc2cc(NC3CCC(=O)NC3=O)ccc2F)CC1 (stereo not shown) [Cmpd 15, 2-(4-(2-(4-(3-(6-cyano-5-(trifluoromethyl)pyridin-3-yl)-5,5-dimethyl-4-oxo-2-thioxoimidazolidin-1-yl)-2-ethylphenoxy)ethyl)piperidin-1-yl)-N-(5-(2,6-dioxopiperidin-3-ylamino)-2-fluorophenyl)acetamide]	* (0<Y<=25%)	< 100 nM	
CCc1cc(N2C(=S)N(c3cnc(C#N)c(C(F)(F)F)c3)C(=O)C23CCC3)ccc1OCC[C@@H]1C[C@H]2CC[C@@H](C1)N2CC(=O)Nc1cccc(NC2CCC(=O)NC2=O)c1 (stereo partly drawn) [Cmpd 68, 2-((1R,3s,5S)-3-(2-(4-(7-(6-cyano-5-(trifluoromethyl)pyridin-3-yl)-8-oxo-6-thioxo-5,7-diazaspiro[3.4]octan-5-yl)-2-ethylphenoxy)ethyl)-8-azabicyclo[3.2.1]octan-8-yl)-N-(3-(2,6-dioxopiperidin-3-ylamino)phenyl)acetamide]	* (0<Y<=25%)		< 100 nM
CC(F)(F)c1cc(N2C(=S)N(c3cnc(C#N)c(C(F)(F)F)c3)C(=O)C2(C)C)ccc1OCCC1CCN(CC(=O)Nc2cc(F)cc(NC3CCC(=O)NC3=O)c2)CC1 (stereo not shown) [Cmpd 22, 2-(4-(2-(4-(3-(6-cyano-5-(trifluoromethyl)pyridin-3-yl)-5,5-dimethyl-4-oxo-2-thioxoimidazolidin-1-yl)-2-(1,1-difluoroethyl)phenoxy)ethyl)piperidin-1-yl)-N-(3-(2,6-dioxopiperidin-3-ylamino)-5-fluorophenyl)acetamide]	* (0<Y<=25%)	< 100 nM	
CCc1cc(N2C(=S)N(c3ccc(C#N)c(C(F)(F)F)c3)C(=O)C2(C)C)ccc1OCC[C@H]1CCN(CC(=O)Nc2cccc(NC3CCC(=O)NC3=O)c2)[C@H](C)C1 (stereo partly drawn) [Cmpd 70, 2-((2R,4S)-4-(2-(4-(3-(4-cyano-3-(trifluoromethyl)phenyl)-5,5-dimethyl-4-oxo-2-thioxoimidazolidin-1-yl)-2-ethylphenoxy)ethyl)-2-methylpiperidin-1-yl)-N-(3-(2,6-dioxopiperidin-3-ylamino)phenyl)acetamide]	* (0<Y<=25%)	< 100 nM	
CCc1cc(N2C(=S)N(c3cnc(C#N)c(C(F)(F)F)c3)C(=O)C2(C)C)ccc1OCC[C@H]1C[C@H]2CC[C@@H](C1)N2CC(=O)Nc1cc(Cl)cc(NC2CCC(=O)NC2=O)c1 (stereo partly drawn) [Cmpd 63, N-(3-chloro-5-(2,6-dioxopiperidin-3-ylamino)phenyl)-2-((1R,3r,5S)-3-(2-(4-(3-(6-cyano-5-(trifluoromethyl)pyridin-3-yl)-5,5-dimethyl-4-oxo-2-thioxoimidazolidin-1-yl)-2-ethylphenoxy)ethyl)-8-azabicyclo[3.2.1]octan-8-yl)acetamide]	** (25%<Y<=35%)		< 100 nM
CCc1cc(N2C(=S)N(c3ccc(C#N)c(C(F)(F)F)c3)C(=O)C23CCC3)ccc1OCCC1CCN(CC(=O)Nc2cc(NC3CCC(=O)NC3=O)ccc2F)CC1 (stereo not shown) [Cmpd 57, 2-(4-(2-(4-(7-(4-cyano-3-(trifluoromethyl)phenyl)-8-oxo-6-thioxo-5,7-diazaspiro[3.4]octan-5-yl)-2-ethylphenoxy)ethyl)piperidin-1-yl)-N-(5-(2,6-dioxopiperidin-3-ylamino)-2-fluorophenyl)acetamide]	* (0<Y<=25%)	100 to 500 nM	

The next lines start with results.

Y (lowest measured AR level normalized to DMSO control)	DC50 (read-out: DC50)	Structure (SMILES)	DC50
* (0<Y<=25%)	100 to 500 nM	CCc1cc(N2C(=S)N(c3cnc(C#N)c(C(F)(F)F)c3)C(=O)C23CCC3)ccc1OCCC1CCN([C@@H](C)C(=O)Nc2cc(Cl)cc(NC3CCC(=O)NC3=O)c2)CC1 (stereo partly drawn) [Cmpd 35, (2S)-N-(3-chloro-5-(2,6-dioxopiperidin-3-ylamino)phenyl)-2-(4-(2-(4-(7-(6-cyano-5-(trifluoromethyl)pyridin-3-yl)-8-oxo-6-thioxo-5,7-diazaspiro[3.4]octan-5-yl)-2-ethylphenoxy)ethyl)piperidin-1-yl)propanamide]	
*** (35%<Y<50%)	500 to 1000 nM	CCc1cc(N2C(=S)N(c3cnc(C#N)c(C(F)(F)F)c3)C(=O)C2(C)C)ccc1OC1C[C@H]2CC[C@@H](C1)N2CC(=O)Nc1cccc(NC2CCC(=O)NC2=O)c1 (stereo partly drawn) [Cmpd 87, 2-((1R,3s,5S)-3-(4-(3-(6-cyano-5-(trifluoromethyl)pyridin-3-yl)-5,5-dimethyl-4-oxo-2-thioxoimidazolidin-1-yl)-2-ethylphenoxy)-8-azabicyclo[3.2.1]octan-8-yl)-N-(3-(2,6-dioxopiperidin-3-ylamino)phenyl)acetamide]	
* (0<Y<=25%)	100 to 500 nM	CCc1cc(N2C(=S)N(c3cnc(C#N)c(C(F)(F)F)c3)C(=O)C23CCC3)ccc1OCCC1CCN(CC(=O)Nc2cc(NC3CCC(=O)NC3=O)ccc2F)CC1 (stereo not shown) [Cmpd 56, 2-(4-(2-(4-(7-(6-cyano-5-(trifluoromethyl)pyridin-3-yl)-8-oxo-6-thioxo-5,7-diazaspiro[3.4]octan-5-yl)-2-ethylphenoxy)ethyl)piperidin-1-yl)-N-(5-(2,6-dioxopiperidin-3-ylamino)-2-fluorophenyl)acetamide]	
* (0<Y<=25%)	< 100 nM	CCc1cc(N2C(=S)N(c3cnc(C#N)c(C(F)(F)F)c3)C(=O)C2(C)C)ccc1OCCC1(F)CCN(CC(=O)Nc2cccc(NC3CCC(=O)NC3=O)c2)CC1 (stereo not shown) [Cmpd 89, 2-(4-(2-(4-(3-(6-cyano-5-(trifluoromethyl)pyridin-3-yl)-5,5-dimethyl-4-oxo-2-thioxoimidazolidin-1-yl)-2-ethylphenoxy)ethyl)-4-fluoropiperidin-1-yl)-N-(3-(2,6-dioxopiperidin-3-ylamino)phenyl)acetamide]	
* (0<Y<=25%)	< 100 nM	CCc1cc(N2C(=S)N(c3cnc(C#N)c(C(F)(F)F)c3)C(=O)C23CCC3)ccc1OCCC1CCN(CC(=O)Nc2cccc(NC3CCC(=O)NC3=O)c2)CC1 (stereo not shown) [Cmpd 29, 2-(4-(2-(4-(7-(6-cyano-5-(trifluoromethyl)pyridin-3-yl)-8-oxo-6-thioxo-5,7-diazaspiro[3.4]octan-5-yl)-2-ethylphenoxy)ethyl)piperidin-1-yl)-N-(3-(2,6-dioxopiperidin-3-ylamino)phenyl)acetamide]	

Reference: patent US11325889B2, “Substituted 3-((3-aminophenyl)amino)piperidine-2,6-dione compounds, compositions thereof, and methods of treatment therewith” (Celgene Corporation, priority 2018, dated 2022)
